Several values for one entry are separate records, joined by “and”; a condition that tells them apart may be missing. Equal values may be shown once.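 Tested at 5 concentrations; 48 h exposure; 96-well plates; endpoints linearly interpolated, else capped at highest concentration. The concentration for 50% growth inhibition is given as GI50. TGI marks complete inhibition of growth.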
What was measured:
Assay in all cases: inhibition of tumour cell growth, NCI panel, 48 h
786-0 renal = test system: 786-0 renal
LOX IMVI melanoma = test system: LOX IMVI melanoma
MDA-MB-231 breast = test system: MDA-MB-231 breast
HS 578T breast = test system: HS 578T breast
SF-539 CNS = test system: SF-539 CNS
CCRF-CEM leukemia = test system: CCRF-CEM leukemia
T-47D breast = test system: T-47D breast
A498 renal = test system: A498 renal
M14 melanoma = test system: M14 melanoma
RPMI-8226 leukemia = test system: RPMI-8226 leukemia

SMILES | TGI (786-0 renal) | TGI (LOX IMVI melanoma) | TGI (MDA-MB-231 breast) | TGI (HS 578T breast) | TGI (SF-539 CNS) | TGI (CCRF-CEM leukemia) | TGI (T-47D breast) | TGI (A498 renal) | TGI (M14 melanoma) | TGI (RPMI-8226 leukemia) | GI50 (LOX IMVI melanoma) | GI50 (MDA-MB-231 breast) | GI50 (HS 578T breast) | GI50 (SF-539 CNS) | GI50 (CCRF-CEM leukemia) | GI50 (T-47D breast) | GI50 (A498 renal) | GI50 (M14 melanoma) | GI50 (RPMI-8226 leukemia)
CC(=O)OC1C(C)OC(OC2C[C@](O)(C(C)=O)Cc3c(O)c4c(c(O)c32)C(=O)c2ccccc2C4=O)C(F)C1OC(C)=O (stereo partly specified) | 2.36 µM | 3.65 µM | 10.7 µM | 9.89 µM | 1.03 µM | 1.51 µM | 41.2 µM | 2.87 µM | 10.7 µM | 2.14 µM |  |  |  |  |  |  |  |  | 
Cc1c(N(Cc2ccccc2)Cc2ccccc2)nc(S(C)(=O)=O)nc1S(C)(=O)=O |  | 3.24 µM |  |  | 25.7 µM | 5.15 µM |  |  | 4.3 µM | 7.61 µM |  |  |  |  |  |  |  |  | 
N=c1sc(N2CCOCC2)nn1CC(=O)c1ccccc1 | > 100 µM |  | > 100 µM | > 100 µM |  | > 100 µM | > 100 µM |  | > 100 µM | > 100 µM |  |  |  |  |  |  |  |  | 
CC(=O)Oc1c(OC(C)C)cc(=O)n2ccsc12 | > 100 µM | > 100 µM | > 100 µM | > 100 µM | > 100 µM | 70.4 µM |  | > 100 µM | > 100 µM | > 100 µM |  |  |  |  |  |  |  |  | 
O=C(C[N+]1(c2ccccc2)CCOCC1)c1ccccc1 | > 100 µM | > 100 µM | > 100 µM | > 100 µM |  |  | > 100 µM | > 100 µM | > 100 µM |  |  |  |  |  |  |  |  |  | 
CCCCCCCCCCCC1=C(O)C(=O)C=C(O)C1=O |  | 38 µM |  |  | 23.3 µM | 36.7 µM |  | 20.9 µM |  | 19.3 µM |  |  |  |  |  |  |  |  | 
N/N=C(\N)SCc1ccc(N=C=S)cc1 | > 100 µM | > 100 µM | > 100 µM | > 100 µM | > 100 µM | > 100 µM | > 100 µM | > 100 µM |  | > 100 µM |  |  |  |  |  |  |  |  | 
NS(=O)(=O)C1CCCCC1C(=O)NNC(=O)C(=O)Nc1nc(=S)[nH][nH]1 (stereo unspecified) |  | > 100 µM |  |  | > 100 µM | > 100 µM |  | > 100 µM | > 100 µM | > 100 µM |  |  |  |  |  |  |  |  | 
O=[N+]([O-])c1cccc2c1[nH]c1c(-c3ccccc3)nccc12 |  | 10.7 µM |  |  | > 69 µM | 21.9 µM |  | 12.9 µM |  | > 100 µM |  |  |  |  |  |  |  |  | 
COc1ccc(-c2cc(-c3ccc(Nc4ccnc5cc(C(F)(F)F)ccc45)cc3)nc(N)c2C#N)c2ccccc12 | > 100 µM | > 100 µM | > 100 µM | > 100 µM | > 100 µM |  | > 100 µM | > 100 µM | > 100 µM | > 100 µM |  |  |  |  |  |  |  |  | 
COc1ccc(Sc2ccccc2[N+](=O)[O-])cc1 |  | > 100 µM |  |  | > 100 µM | > 100 µM |  | > 100 µM | > 100 µM | > 100 µM |  |  |  |  |  |  |  |  | 
CCCCN1/C(=N/Nc2n[nH]c(=O)c3ccccc23)SCC1c1ccc(Cl)cc1 (stereo unspecified) | 42.2 µM |  | 55 µM | 56.2 µM | 33.1 µM |  | > 100 µM | 66.2 µM | 19.5 µM | > 100 µM |  |  |  |  |  |  |  |  | 
CSC(=NCCCN=C(NS(=O)(=O)c1ccc(Cl)cc1)SC)NS(=O)(=O)c1ccc(Cl)cc1 | > 100 µM | 70.6 µM | > 100 µM |  | > 100 µM | > 100 µM | > 100 µM | 73.1 µM | > 100 µM | > 100 µM |  |  |  |  |  |  |  |  | 
Cc1cc(N(CCCl)CCCl)ccc1/C=N\NC(=O)c1cccnc1 |  | 99.4 µM | > 100 µM | > 100 µM | > 100 µM | > 100 µM | 50.2 µM | 2.92 µM | > 100 µM | 59 µM | 15.6 µM | 29.3 µM | 48.6 µM | 13.9 µM | 9.23 µM | 6.41 µM | 1.42 µM | 34.4 µM | 20.1 µM
COC1=C(C)C(=O)C2=C(C1=O)C1C3CC4=C(C(=O)C(OC)=C(C)C4=O)C(CNC(=O)C(C)=O)N3C(C#N)C(C2)N1C (stereo unspecified) |  | 8.74e-05 µM and < 0.0251 µM and < 0.0105 µM | 0.0127 µM and 0.0154 µM | 0.00238 µM |  |  | 0.00608 µM |  |  |  | 1.47e-05 µM |  |  |  |  | 0.000553 µM | 0.0634 µM |  | 
Nc1nc(N)c2ncn(Cc3ccccc3)c2n1 | > 100 µM |  | > 100 µM | > 100 µM | > 100 µM | > 100 µM | > 100 µM | > 100 µM | > 100 µM | > 100 µM |  |  |  |  |  |  |  |  | 
C[C@@H](c1ccccc1)N(CC#N)[C@H]1CCC[C@]1(O)/C=C/c1ccc2c(c1)OCO2 | > 25 µM | > 25 µM | > 25 µM | > 25 µM |  | > 25 µM | > 25 µM | 6.98 µM | > 25 µM | > 25 µM |  |  |  |  |  |  |  |  | 
COC(=O)C1CCC(=S)N1C(C)=O (stereo unspecified) | > 100 µM |  | > 100 µM | > 100 µM |  |  |  | > 100 µM | > 100 µM | > 100 µM |  |  |  |  |  |  |  |  | 
O=C(NCc1ccc(Cl)c(Cl)c1)c1nc2ccccc2nc1NCc1ccc(Cl)c(Cl)c1 | > 100 µM | > 100 µM | > 100 µM | > 100 µM | > 100 µM | > 100 µM | > 100 µM | > 100 µM | > 100 µM |  |  |  |  |  |  |  |  |  | 
O=C(Nc1nc2ccc([N+](=O)[O-])cc2s1)c1cc([N+](=O)[O-])ccc1Cl | 11.7 µM | 5.3 µM | 21.3 µM |  | 6.71 µM |  | > 100 µM | 7.42 µM |  | 9.8 µM |  |  |  |  |  |  |  |  | 
CCOC(=O)N/N=C(/N)Cc1ccc(Cl)cc1 | > 100 µM | > 100 µM | > 100 µM |  | > 100 µM | > 100 µM |  |  | > 100 µM | > 100 µM |  |  |  |  |  |  |  |  | 
CC1=C(C(=O)OC(C)(C)C)C(c2ccc([N+](=O)[O-])cc2)C(C(=O)OC(C)(C)C)=C(C)N1 | 38.7 µM | 32.9 µM | 41.4 µM | 43.4 µM | 34.9 µM |  | 33.4 µM | 37.6 µM | 47.6 µM | 54 µM |  |  |  |  |  |  |  |  | 
Cc1ccc(C)c(C(=O)CC2OC(O)C(Cl)C2Cl)c1 (stereo unspecified) |  | 48.4 µM |  |  | 53.2 µM | > 100 µM |  | > 100 µM | > 100 µM | > 100 µM |  |  |  |  |  |  |  |  | 
COc1ccc(-c2cc(=O)c3cc(OC)c(OC)cc3[nH]2)cc1OC | > 100 µM | > 100 µM | > 100 µM | > 100 µM | > 100 µM | > 100 µM |  | > 100 µM | > 100 µM | > 100 µM |  |  |  |  |  |  |  |  | 
Nc1cc(O)c2cc(N=Nc3ccc(N=Nc4ccc(N=Nc5ccc6cc(S(=O)(=O)O)cc(S(=O)(=O)O)c6c5)c5ccccc45)c4cc(S(=O)(=O)O)ccc34)c(S(=O)(=O)O)cc2c1 |  | > 100 µM |  |  | > 100 µM | > 100 µM |  | > 100 µM |  | > 100 µM |  |  |  |  |  |  |  |  | 
